Results as given in patent US20070259856A1, “Method for Activating Trpv4 Channel Receptors by Agonists” (priority 2004, published 2007).
Read-outs that look alike come from different tables or passages of the source. Each block holds one compound with its values, some of them ahead of it.

Legend:
[1] = system: bovine articular cartilage explants; assay: IL-1 induced collagen degradation (hydroxyproline) in bovine articular cartilage explants; assay type: cell-based
Description: IL-1 stimulates collagen degradation in bovine articular cartilage explants after extended (−2-3 weeks) exposure to IL-1. Collagen breakdown was evaluated by measuring the levels of hydroxyproline, a major component of hydrolyzed collagen fibrils, using a colorimetric assay that is understood in the art. Bovine articular cartilage was stimulated with IL-1 for 18 days, in the absence or presence of Formula Ib or Formula IId (both at 1 uM). Media was removed and replaced every 2-4 days with fresh IL-1 and compound through day 18. As has been shown previously, aggrecan degradation precedes collagen breakdown in IL-1-stimulated bovine cartilage explants. Once aggrecan depletion had been achieved by day 10, media were analyzed for collagen breakdown using the hydroxyproline assay.

TRPV4 channel receptor [2] = molecular target: T1, TRPV4 channel receptor (Bos taurus, UniProt A0A8F4X677); assay: Ca2+ influx in bovine articular chondrocytes (FlexStation); assay type: cell-based
T1 construct: endogenous in cells; host or cells: bovine articular chondrocytes

TRPV4 channel receptor [3] = molecular target: TRPV4 channel receptor (Rattus norvegicus, UniProt Q9ERZ8); assay: Ca2+ influx in rat articular chondrocytes (FlexStation); conditions: for Ca2+ influx: rat chondrocytes
TRPV4 channel receptor [4] = molecular target: T2, TRPV4 channel receptor (Homo sapiens, UniProt Q9HBA0); assay: FLIPR assay; assay type: cell-based
aggrecanase = assay: IL-1 induced aggrecanase production, chondrocyte-based aggrecanase peptide cleavage assay; assay type: cell-based, bovine; conditions: Bos taurus
Source text: Aggrecanases (ADAMTSs), in conjunction with MMPs, degrade aggrecan, one of the major matrix components in articular cartilage. […] 2003; 48(1): 119-133].

TRPV4 channel receptor [5] = molecular target: T2, TRPV4 channel receptor; assay: Ca2+ influx in human articular chondrocytes (FlexStation)
wild type HEK293 cells = assay: Intracellular calcium (FLIPR) in wild type HEK293 cells; assay type: cell-based; parameters: key to pEC50 wild type: IA = inactive; conditions: for pEC50 wild type: intracellular calcium, mean ± s.e.mean, n = 3-5
Description: (§1) TRPV4 channel receptor cDNA was inserted into the expression vector pcDNA3.1 V5-His (Invitrogen, Carlsbad, Calif.). Wildtype HEK293 cells, or HEK293 cells transfected with the human TRPV4 channel receptor: pcDNA3.1 V5-His construct, or mock transfected cells, or bovine chondrocytes, were seeded into 96-well microtitre plates at 25,000 cells/well and cultured overnight. The cells were then incubated with 4 μM Fluo-3 (Fluo-3: Molecular Probes (Eugene, Oreg.)) for 2 hours at room temperature in the dark. Dye loaded cells were washed 4× with Tyrodes buffer: (NaCl, 145 mM; KCl, 2.5 mM; Hepes, 10 mM; Glucose, 10 mM; MgCl2, 1.2 mM; CaCl2, 1.5 mM), which also contained 0.2% BSA but not probenecid. Agonists and antagonists were also prepared in Tyrodes buffer. Cells were preincubated for 30 minutes with antagonist or buffer. Agonist addition and measurement of cytoplasmic calcium concentration was performed in the FLIPR (Smart, et al., (2000) Br. J. Pharmacol. 129, 227-230).

TRPV4 channel receptor [6] = molecular target: T2, TRPV4 channel receptor; assay: Intracellular calcium (FLIPR, Fluo-3) in HEK293 cells transfected with human TRPV4 channel receptor; assay type: cell-based; parameters: V5-His (from the vector's name only); expressed in transfected cells; host or cells: HEK293; key to pEC50 TRPVR4: IA = inactive; conditions: for pEC50 TRPVR4: intracellular calcium, mean ± s.e.mean, n = 3-5
Description: as §1

TRPVR1 = TRPVR1 (Homo sapiens, UniProt Q8NER1); assay type: cell-based; conditions: for pEC50 TRPVR1: intracellular calcium, mean ± s.e.mean, n = 3-5
[7] = system: cells transfected with empty vector; assay: Intracellular calcium (FLIPR) in HEK293 cells transfected with empty vector; assay type: cell-based; parameters: key to pEC50 empty vector: IA = inactive; conditions: for pEC50 empty vector: intracellular calcium, mean ± s.e.mean, n = 3-5
Description: as §1

[8] = system: bovine articular cartilage explants; assay: IL-1 induced aggrecan degradation (GAG release, DMMB) in bovine articular cartilage explants; assay type: cell-based
Source text: Articular cartilage explants isolated from newborn calves at slaughter were placed in culture, and aggrecan degradation was initiated through stimulation with IL-1. Since aggrecan degradation in this model is believed to be mediated by aggrecanase, TRPV4 channel receptor agonists that are active in the chondrocyte-based aggrecanase peptide assay (Example 11) may also be effective inhibitors in the cartilage explant assay, presumably by blocking aggrecanase production in these tissues.
At the end of the culture period, conditioned media were assayed for glycosaminoglycan (GAG) levels by colorimetric (DMMB) assay as a measure of aggrecan degradation. In bovine explants, IL-1 induced a profound increase in the amount of GAG released into the media during the 3 day culture. When cartilage was treated with IL-1 in combination with Formula IIc, there was a concentration-dependent reduction in GAG release as shown in Table 5.

human cartilage explants = assay: Aggrecan degradation (GAG, DMMB) in human cartilage explants; assay type: cell-based; conditions: Homo sapiens; estimated; 3-point concentration response
Description: Because the progression of aggrecan degradation in response to IL-1 in human cartilage is slower than in bovine cartilage, culture media was removed and replaced with fresh treatments every 2-3 days for approximately 3 weeks. For each timepoint, GAG levels were measured by DMMB assay, and cumulative data released over the entire 3 week culture period was calculated.
The data represents cumulative aggrecan degradation after 21 days in culture. […] In addition, Formula IId caused a concentration-dependent reduction of IL-1-induced aggrecan degradation. […] The estimated IC50's shown in Table 7 are very similar to those IC50's calculated from IL-1-stimulated bovine cartilage.

Sequence of TRPV4 channel receptor (Rattus norvegicus, UniProt Q9ERZ8) (Q9ERZ8 whole entry): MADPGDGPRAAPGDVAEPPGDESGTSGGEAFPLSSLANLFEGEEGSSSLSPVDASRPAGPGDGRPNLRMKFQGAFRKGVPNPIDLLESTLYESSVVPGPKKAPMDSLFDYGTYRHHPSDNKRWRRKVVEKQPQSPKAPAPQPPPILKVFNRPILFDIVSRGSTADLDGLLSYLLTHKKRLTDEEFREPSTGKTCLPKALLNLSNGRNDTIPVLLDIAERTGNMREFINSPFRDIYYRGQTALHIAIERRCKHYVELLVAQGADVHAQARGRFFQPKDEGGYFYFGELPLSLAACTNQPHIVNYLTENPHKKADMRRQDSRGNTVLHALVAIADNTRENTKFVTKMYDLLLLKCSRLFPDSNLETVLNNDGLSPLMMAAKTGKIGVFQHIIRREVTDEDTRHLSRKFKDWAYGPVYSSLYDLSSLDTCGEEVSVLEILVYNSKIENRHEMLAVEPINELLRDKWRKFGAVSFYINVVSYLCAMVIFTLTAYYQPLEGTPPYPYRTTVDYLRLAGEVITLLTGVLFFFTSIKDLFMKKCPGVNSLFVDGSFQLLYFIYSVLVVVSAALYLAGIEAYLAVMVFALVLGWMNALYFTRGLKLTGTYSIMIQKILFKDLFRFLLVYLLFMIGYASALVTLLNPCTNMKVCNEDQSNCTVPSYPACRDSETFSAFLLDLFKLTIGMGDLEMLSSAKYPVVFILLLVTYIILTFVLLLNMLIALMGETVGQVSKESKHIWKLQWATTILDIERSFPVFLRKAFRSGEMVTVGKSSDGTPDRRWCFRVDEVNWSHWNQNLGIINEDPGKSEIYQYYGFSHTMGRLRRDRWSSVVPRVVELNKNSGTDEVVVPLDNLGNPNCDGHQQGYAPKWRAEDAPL
T2 sequence (Q9HBA0 whole entry): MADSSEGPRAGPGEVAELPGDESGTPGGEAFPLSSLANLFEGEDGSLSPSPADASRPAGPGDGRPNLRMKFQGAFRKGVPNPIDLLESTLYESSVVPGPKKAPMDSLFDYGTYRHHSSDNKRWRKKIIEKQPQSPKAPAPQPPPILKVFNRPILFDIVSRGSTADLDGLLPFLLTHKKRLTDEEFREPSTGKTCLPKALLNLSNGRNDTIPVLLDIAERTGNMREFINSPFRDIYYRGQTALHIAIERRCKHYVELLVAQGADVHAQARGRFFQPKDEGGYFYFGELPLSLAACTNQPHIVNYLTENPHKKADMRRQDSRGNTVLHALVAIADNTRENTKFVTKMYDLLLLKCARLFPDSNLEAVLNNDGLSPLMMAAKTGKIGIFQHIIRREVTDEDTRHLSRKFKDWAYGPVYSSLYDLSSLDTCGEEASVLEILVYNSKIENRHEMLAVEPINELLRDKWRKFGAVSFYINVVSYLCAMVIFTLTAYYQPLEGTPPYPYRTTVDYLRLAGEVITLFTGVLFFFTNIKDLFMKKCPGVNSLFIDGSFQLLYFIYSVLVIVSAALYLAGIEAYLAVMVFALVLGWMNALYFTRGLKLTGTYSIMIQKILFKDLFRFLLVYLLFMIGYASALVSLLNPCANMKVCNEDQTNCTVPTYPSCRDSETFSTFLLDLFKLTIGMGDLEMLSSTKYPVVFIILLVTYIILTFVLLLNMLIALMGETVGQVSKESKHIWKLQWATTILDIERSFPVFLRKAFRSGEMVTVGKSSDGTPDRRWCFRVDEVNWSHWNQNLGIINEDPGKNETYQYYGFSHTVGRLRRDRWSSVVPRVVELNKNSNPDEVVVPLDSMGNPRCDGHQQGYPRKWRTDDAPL
T1 sequence (A0A8F4X677 1-871): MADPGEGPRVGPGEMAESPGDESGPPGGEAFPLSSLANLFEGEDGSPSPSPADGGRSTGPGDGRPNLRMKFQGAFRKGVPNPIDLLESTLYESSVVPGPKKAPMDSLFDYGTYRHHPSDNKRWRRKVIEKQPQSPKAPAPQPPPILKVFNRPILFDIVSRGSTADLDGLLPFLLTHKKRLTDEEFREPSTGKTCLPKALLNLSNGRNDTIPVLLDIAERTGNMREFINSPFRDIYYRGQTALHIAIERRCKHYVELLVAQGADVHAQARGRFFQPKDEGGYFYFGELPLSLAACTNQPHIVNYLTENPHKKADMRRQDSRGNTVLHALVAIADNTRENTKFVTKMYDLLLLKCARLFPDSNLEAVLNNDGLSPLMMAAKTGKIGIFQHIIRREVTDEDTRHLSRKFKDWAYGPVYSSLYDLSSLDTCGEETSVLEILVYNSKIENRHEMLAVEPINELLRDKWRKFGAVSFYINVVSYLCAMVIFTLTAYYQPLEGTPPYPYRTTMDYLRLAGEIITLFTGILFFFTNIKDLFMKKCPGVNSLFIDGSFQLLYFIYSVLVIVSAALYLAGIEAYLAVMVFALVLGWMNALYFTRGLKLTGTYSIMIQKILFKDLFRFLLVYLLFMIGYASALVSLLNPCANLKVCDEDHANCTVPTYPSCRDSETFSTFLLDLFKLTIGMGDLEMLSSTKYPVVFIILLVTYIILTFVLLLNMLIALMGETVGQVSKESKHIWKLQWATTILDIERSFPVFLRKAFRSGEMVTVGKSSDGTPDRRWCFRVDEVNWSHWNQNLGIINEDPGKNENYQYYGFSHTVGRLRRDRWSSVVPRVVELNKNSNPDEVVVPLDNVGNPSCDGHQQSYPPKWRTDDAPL
Sequence of TRPVR1 (Q8NER1 whole entry): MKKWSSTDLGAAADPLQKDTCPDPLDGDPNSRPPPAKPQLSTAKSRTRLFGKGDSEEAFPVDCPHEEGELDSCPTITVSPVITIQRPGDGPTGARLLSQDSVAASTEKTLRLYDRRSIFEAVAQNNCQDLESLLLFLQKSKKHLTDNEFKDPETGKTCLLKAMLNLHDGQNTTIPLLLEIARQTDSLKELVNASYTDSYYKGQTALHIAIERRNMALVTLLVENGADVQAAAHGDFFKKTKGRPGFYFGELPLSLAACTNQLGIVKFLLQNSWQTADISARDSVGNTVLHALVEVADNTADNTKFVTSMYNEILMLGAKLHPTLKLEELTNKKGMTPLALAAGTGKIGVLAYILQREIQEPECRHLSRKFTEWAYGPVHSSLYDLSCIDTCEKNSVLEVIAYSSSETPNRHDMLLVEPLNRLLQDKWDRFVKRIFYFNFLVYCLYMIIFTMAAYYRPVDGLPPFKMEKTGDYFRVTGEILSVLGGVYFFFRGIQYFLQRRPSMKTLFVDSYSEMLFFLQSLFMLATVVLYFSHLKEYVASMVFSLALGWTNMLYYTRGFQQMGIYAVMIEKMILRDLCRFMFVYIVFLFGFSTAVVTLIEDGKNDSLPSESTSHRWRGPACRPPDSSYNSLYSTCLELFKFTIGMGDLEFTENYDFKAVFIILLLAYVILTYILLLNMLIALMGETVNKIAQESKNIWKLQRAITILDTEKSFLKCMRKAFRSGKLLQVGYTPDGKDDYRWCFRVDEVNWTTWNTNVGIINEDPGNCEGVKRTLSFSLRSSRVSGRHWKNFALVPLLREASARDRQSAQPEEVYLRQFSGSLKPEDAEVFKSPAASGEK

Compound: COc1ccc(S(=O)(=O)N(Cc2cccnc2)[C@@H](C(=O)NO)C(C)C)cc1 [CGS-27023A, reference compound]
- block of IL-1-induced collagen degradation [1]: completely blocked

- BAC % eff (TRPV4 channel receptor [2]; bovine articular chondrocytes): (94%)
- EC50 (TRPV4 channel receptor [2]; bovine articular chondrocytes, read-out: BAC EC50): 310 nM
- EC50 (TRPV4 channel receptor [3]; RAC EC50, rat articular chondrocytes, N = 2): 140 nM
- RAC % eff (TRPV4 channel receptor [3]; rat articular chondrocytes, N = 2): 70%
- EC50 (TRPV4 channel receptor [4]): 370 nM
- IC50 (aggrecanase): 40 nM
- EC50 (TRPV4 channel receptor [5]; HAC EC50, human articular chondrocytes, N = 2): 250 nM
- HAC % eff (TRPV4 channel receptor [5]; human articular chondrocytes, N = 2): 127%
Compound: CC(C)C[C@H](NC(=O)c1cc2ccccc2s1)C(=O)NCCCN(C)S(=O)(=O)c1ccc(Cl)cc1Cl [Formula IIIc, N-{(1S)-1-[({3-[[(2,4-dichlorophenyl)sulfonyl](methyl)amino]propyl}amino)carbonyl]-3-methylbutyl}-1-benzothiophene-2-carboxamide]

Compound: C=C(C)[C@]12C[C@@H](C)[C@@]34O[C@](Cc5ccccc5)(O[C@@H]1[C@@H]3C=C(COC(=O)Cc1ccc(O)c(OC)c1)C[C@]1(O)C(=O)C(C)=C[C@@H]41)O2 [RTX]
- pEC50 wild type (wild type HEK293 cells): IA
- pEC50 TRPVR4 (TRPV4 channel receptor [6]): IA
- pEC50 TRPVR1 (TRPVR1): 8.93 ± 0.20
- pEC50 empty vector [7]: IA

Compound: CCCCCCCCCCCCCC(=O)O[C@@H]1[C@@H](C)[C@@]2(O)[C@@H](C=C(CO)C[C@]3(O)C(=O)C(C)=C[C@@H]23)[C@@H]2C(C)(C)[C@]12OC(C)=O [PMA, phorbol 12-myristate 13-acetate]
- effect on intracellular calcium in wild type HEK293 cells (wild type HEK293 cells): without effect
- pEC50 wild type (wild type HEK293 cells): IA
- Ca2+ influx (TRPV4 channel receptor [2]; bovine chondrocytes): no change in Ca^2+ influx
- Ca2+ influx (TRPV4 channel receptor [3]): no change in Ca^2+ influx
- intracellular calcium in HEK293-TRPV4 channel receptor cells (TRPV4 channel receptor [6]): increased intracellular calcium
- pEC50 TRPVR4 (TRPV4 channel receptor [6]): 6.64 ± 0.06
- activation of VR1 (TRPVR1): activated VR1
- Emax at VR1 (TRPVR1; compared to capsaicin and RTX): 0.46
- pEC50 TRPVR1 (TRPVR1): 7.86 ± 0.06
- effect on intracellular calcium in cells transfected with empty vector [7]: without effect
- pEC50 empty vector [7]: IA
- Ca2+ influx (TRPV4 channel receptor [5]; human chondrocytes): no change in Ca^2+ influx

Compound: CC(C)C[C@H](NC(=O)c1cc2ccccc2s1)C(=O)N[C@@H]1CCCN(S(=O)(=O)c2ccc(Cl)cc2)CC1=O [Formula IIc, N-{(1S)-1-[({(4R)-1-[(4-chlorophenyl)sulfonyl]-3-oxohexahydro-1H-azepin-4-yl}amino)carbonyl]-3-methylbutyl}-1-benzothiophene-2-carboxamide]
- GAG release Mean ± SEM ([8]; 0.01 μM, IL-1 100 ng/ml, 3 days): 62 ± 4.82 μg/explant
- GAG release Mean ± SEM ([8]; 0.03 μM, IL-1 100 ng/ml, 3 days): 59 ± 4.62 μg/explant
- GAG release Mean ± SEM ([8]; 0.10 μM, IL-1 100 ng/ml, 3 days): 43 ± 3.18 μg/explant
- GAG release Mean ± SEM ([8]; 1.00 μM, IL-1 100 ng/ml, 3 days): 14 ± 1.44 μg/explant
- inhibition at 0.01 µM ([8]; Bos taurus, 72 h, 0.01 μM, IL-1 100 ng/ml, 3 days): -2%
- inhibition at 0.03 µM ([8]; Bos taurus, 72 h, 0.03 μM, IL-1 100 ng/ml, 3 days): 4%
- inhibition at 0.1 µM ([8]; Bos taurus, 72 h, 0.10 μM, IL-1 100 ng/ml, 3 days): 38%
- inhibition at 1 µM ([8]; Bos taurus, 72 h, 1.00 μM, IL-1 100 ng/ml, 3 days): 98%
- inhibition of aggrecan degradation ([8]; IL-1 stimulation for 12 or 21 days): Significant inhibition

- Ca2+ influx (TRPV4 channel receptor [2]; bovine chondrocytes): no change in Ca^2+ influx
- Ca2+ influx (TRPV4 channel receptor [3]): no change in Ca^2+ influx
- pEC50 TRPVR4 (TRPV4 channel receptor [6]): IA
- pEC50 empty vector [7]: IA
- Ca2+ influx (TRPV4 channel receptor [5]; human chondrocytes): no change in Ca^2+ influx
Compound: COc1cc(CNC(=O)CCCC/C=C/C(C)C)ccc1O [capsaicin, reference compound]
- pEC50 wild type (wild type HEK293 cells): IA

- Ca Influx - FLEX (bovine) % effic. (TRPV4 channel receptor [2]; bovine chondrocytes): 119%
- EC50 (TRPV4 channel receptor [2]; bovine chondrocytes, read-out: Ca Influx - FLEX (bovine) EC50): 280 nM
- IC50 (aggrecanase): 600 nM
- EC50 (TRPV4 channel receptor [5]; Ca Influx - FLEX (human) EC50, human chondrocytes): 260 nM
- Ca Influx - FLEX (human) % effic. (TRPV4 channel receptor [5]; human chondrocytes): 133%
Compound: CC(C)C[C@H](NC(=O)c1cc2ccccc2n1C)C(=O)N[C@@H]1CCCN(S(=O)(=O)c2ccccc2C#N)CC1 [Formula Ib, N-{(1S)-1-[({(4R)-1-[(2-cyanophenyl)sulfonyl]hexahydro-1H-azepin-4-yl}amino)carbonyl]-3-methylbutyl}-methyl-1H-indole-2-carboxamide]
- IC50 (human cartilage explants): 300 nM
- IC50 ([8]; Bos taurus, IL-1-stimulated bovine cartilage): 200 nM
- Hydroxyproline Mean ± SEM ([1]; 1 uM, IL-1 50 ng/ml, media from day 14-18): 6 ± 2 µg
- inhibition at 1 µM ([1]; Bos taurus, 336 h, 1 uM, IL-1 50 ng/ml, media from day 14-18): 95%
